According to paper PMC9814781, “Structure-based design of a dual-warhead covalent inhibitor of FGFR4” (Communications Chemistry, 2022):

What was measured:
Experiment in all cases: Kinase selectivity profiling
ZAP70 = ZAP70 (Homo sapiens, UniProt P43403)
PAK4 = PAK4 (Homo sapiens, UniProt O96013)
CK1γ1 = CK1γ1 (Homo sapiens, UniProt Q9HCP0)
MER = MER (Homo sapiens, UniProt Q12866)
SRC = SRC (Homo sapiens, UniProt P12931)
IKK-alpha(CHUK) = IKK-alpha(CHUK) (Homo sapiens, UniProt O15111)
AMPKα1/β1/γ1 = AMPKα1/β1/γ1 (Homo sapiens, UniProt Q13131)
JAK3 = JAK3 (Homo sapiens, UniProt P52333)
CDK2/CycE1 = CDK2/CycE1 (Homo sapiens, UniProt P24941)
TGFbR1 = TGFbR1 (Homo sapiens, UniProt P36897)
NPM1-ALK = NPM1-ALK (Homo sapiens, UniProt P06748+Q9UM73)
Chain of NPM1-ALK (P06748+Q9UM73 fused): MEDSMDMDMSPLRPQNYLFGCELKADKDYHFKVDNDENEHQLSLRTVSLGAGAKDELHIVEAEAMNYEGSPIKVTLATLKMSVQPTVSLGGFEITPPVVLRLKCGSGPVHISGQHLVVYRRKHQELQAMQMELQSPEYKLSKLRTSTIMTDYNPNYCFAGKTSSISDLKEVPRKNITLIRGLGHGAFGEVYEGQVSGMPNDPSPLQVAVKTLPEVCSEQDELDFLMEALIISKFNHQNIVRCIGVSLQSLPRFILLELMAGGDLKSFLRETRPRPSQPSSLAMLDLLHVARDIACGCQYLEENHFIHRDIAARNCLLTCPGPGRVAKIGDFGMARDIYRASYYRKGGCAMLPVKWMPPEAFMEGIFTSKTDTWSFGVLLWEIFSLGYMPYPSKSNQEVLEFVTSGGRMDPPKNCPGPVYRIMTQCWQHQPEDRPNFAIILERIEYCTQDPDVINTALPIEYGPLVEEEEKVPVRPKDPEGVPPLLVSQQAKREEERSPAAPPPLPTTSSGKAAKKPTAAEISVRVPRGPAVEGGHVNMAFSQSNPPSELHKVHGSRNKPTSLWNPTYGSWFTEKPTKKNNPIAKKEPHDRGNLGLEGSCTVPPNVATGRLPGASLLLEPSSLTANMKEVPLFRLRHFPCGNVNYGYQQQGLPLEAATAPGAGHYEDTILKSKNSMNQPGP

CDK9/CycK = CDK9/CycK (Homo sapiens, UniProt P50750)
TAOK1 = TAOK1 (Homo sapiens, UniProt Q7L7X3)
EPHB4 = EPHB4 (Homo sapiens, UniProt P54760)
Chain of EPHB4 (P54760 16-987): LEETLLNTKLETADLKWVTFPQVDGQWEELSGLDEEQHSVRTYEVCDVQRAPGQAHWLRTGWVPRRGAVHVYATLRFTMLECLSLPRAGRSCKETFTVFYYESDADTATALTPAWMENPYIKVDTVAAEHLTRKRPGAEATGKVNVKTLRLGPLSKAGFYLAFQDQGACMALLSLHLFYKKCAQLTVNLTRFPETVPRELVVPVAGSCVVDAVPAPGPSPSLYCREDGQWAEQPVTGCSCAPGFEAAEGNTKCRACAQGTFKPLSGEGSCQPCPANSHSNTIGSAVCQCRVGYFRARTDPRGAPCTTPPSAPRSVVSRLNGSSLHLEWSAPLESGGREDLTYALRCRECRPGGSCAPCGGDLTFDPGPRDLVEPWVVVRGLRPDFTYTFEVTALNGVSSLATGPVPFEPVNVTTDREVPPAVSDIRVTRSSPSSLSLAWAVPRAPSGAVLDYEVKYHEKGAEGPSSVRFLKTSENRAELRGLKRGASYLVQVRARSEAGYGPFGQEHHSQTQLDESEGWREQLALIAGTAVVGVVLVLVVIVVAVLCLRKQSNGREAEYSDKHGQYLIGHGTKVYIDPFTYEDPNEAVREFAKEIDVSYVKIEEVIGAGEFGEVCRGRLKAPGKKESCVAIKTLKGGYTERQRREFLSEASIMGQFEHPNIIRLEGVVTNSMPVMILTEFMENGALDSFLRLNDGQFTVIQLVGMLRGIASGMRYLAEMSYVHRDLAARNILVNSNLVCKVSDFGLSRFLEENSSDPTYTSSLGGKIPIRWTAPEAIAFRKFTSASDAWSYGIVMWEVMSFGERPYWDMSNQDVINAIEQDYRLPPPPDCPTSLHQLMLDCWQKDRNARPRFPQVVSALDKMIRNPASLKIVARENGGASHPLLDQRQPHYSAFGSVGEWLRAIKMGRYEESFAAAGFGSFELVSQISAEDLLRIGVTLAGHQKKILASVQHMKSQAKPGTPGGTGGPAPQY

DDR1 = DDR1 (Homo sapiens, UniProt Q08345)
BRSK2 = BRSK2 (Homo sapiens, UniProt Q8IWQ3)
Chain of BRSK2 (Q8IWQ3 whole entry): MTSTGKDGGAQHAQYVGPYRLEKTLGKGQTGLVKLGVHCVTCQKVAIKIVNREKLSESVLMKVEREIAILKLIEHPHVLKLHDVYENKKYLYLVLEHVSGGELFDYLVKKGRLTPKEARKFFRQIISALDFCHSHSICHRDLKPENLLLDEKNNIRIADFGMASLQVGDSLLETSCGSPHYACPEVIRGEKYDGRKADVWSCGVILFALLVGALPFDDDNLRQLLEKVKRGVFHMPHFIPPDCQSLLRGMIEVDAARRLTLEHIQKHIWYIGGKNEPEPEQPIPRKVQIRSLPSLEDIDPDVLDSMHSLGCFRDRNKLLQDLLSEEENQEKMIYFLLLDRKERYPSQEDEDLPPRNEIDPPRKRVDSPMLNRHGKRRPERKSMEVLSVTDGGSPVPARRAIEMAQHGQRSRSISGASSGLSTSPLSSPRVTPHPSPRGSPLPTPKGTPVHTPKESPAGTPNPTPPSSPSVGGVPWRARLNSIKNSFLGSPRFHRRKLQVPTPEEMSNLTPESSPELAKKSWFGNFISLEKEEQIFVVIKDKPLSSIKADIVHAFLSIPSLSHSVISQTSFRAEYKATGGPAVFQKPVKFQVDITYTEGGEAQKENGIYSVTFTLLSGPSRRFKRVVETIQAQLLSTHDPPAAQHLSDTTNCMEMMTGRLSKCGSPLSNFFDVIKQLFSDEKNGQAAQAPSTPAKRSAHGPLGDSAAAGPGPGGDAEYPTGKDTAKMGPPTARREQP

CDK5/p25NCK = CDK5/p25NCK (Homo sapiens, UniProt Q00535)
Chain of CDK5/p25NCK (Q00535 whole entry): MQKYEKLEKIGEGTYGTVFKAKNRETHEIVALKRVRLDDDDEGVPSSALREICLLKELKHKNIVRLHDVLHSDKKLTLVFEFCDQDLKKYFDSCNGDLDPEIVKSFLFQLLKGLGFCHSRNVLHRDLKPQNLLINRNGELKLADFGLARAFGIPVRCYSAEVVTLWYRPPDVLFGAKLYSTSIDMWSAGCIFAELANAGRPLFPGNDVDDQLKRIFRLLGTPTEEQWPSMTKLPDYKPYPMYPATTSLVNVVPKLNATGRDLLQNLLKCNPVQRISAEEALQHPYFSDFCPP
Chain of CDK5/p25NCK (Q15078 99-307 partner limits assumed): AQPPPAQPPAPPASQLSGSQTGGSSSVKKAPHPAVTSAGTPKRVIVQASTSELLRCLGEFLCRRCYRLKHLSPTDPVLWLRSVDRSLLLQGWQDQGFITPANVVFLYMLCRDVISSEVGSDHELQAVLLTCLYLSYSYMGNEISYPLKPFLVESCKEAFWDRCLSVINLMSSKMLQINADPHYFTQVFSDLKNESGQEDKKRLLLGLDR

PDGFRβ = PDGFRβ (Homo sapiens, UniProt P09619)
FES = FES (Homo sapiens, UniProt P07332)
TGFβR2 = TGFβR2 (Homo sapiens, UniProt P37173)
Chain of TGFβR2 (P37173 23-567): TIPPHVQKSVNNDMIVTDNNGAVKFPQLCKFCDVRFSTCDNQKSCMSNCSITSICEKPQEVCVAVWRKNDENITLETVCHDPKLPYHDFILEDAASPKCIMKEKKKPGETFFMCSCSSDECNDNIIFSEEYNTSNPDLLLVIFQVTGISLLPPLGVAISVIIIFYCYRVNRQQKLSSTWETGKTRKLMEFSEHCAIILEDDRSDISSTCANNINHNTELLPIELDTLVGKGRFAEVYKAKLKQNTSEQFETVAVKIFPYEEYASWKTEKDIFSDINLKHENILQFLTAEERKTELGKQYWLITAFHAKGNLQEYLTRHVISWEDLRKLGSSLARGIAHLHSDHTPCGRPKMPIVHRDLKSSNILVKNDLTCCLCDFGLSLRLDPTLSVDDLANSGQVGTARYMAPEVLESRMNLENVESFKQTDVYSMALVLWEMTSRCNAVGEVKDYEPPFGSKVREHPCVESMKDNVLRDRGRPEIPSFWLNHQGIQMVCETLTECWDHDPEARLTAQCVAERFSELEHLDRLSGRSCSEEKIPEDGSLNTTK

DYRK3 = DYRK3 (Homo sapiens, UniProt O43781)
JAK1 = JAK1 (Homo sapiens, UniProt P23458)

Chain of ZAP70 (P43403 whole entry): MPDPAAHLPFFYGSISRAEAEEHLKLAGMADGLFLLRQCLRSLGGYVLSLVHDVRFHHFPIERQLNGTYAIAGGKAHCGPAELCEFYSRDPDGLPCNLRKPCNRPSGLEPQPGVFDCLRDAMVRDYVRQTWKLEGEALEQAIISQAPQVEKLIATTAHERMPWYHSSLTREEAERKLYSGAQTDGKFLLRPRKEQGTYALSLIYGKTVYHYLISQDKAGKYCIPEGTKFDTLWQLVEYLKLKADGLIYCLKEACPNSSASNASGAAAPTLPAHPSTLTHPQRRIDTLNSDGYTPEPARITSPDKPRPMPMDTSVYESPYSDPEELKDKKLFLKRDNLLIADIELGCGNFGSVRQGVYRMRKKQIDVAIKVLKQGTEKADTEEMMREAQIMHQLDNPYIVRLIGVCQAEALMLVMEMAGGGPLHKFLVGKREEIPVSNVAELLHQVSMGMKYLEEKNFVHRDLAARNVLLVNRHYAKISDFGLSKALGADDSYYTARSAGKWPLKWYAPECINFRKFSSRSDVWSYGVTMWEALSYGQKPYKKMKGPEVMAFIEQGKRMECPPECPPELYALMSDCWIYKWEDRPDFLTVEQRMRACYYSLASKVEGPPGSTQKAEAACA
Chain of IKK-alpha(CHUK) (O15111 whole entry): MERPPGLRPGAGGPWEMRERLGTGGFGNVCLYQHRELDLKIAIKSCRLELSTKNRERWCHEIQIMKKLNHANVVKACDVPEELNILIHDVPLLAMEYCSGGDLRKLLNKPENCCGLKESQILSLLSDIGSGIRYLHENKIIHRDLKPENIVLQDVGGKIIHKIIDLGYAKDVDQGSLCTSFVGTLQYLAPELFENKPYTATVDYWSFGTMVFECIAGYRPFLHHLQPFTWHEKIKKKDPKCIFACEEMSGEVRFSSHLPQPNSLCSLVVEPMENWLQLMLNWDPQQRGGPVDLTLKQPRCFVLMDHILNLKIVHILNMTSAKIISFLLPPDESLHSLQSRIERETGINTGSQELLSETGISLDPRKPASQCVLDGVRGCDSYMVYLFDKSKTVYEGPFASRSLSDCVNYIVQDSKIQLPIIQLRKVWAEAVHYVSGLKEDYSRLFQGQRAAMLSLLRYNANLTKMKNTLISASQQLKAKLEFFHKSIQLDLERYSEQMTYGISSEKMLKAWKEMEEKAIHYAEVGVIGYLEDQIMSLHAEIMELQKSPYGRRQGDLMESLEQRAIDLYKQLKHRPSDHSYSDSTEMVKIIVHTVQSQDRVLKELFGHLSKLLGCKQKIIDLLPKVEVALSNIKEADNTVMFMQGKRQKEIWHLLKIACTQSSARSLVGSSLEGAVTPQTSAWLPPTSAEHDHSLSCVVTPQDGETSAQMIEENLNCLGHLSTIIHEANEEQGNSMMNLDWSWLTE

## C=CC(=O)Nc1ccccc1Nc1ncc2c(n1)N(CCCN1CCN(C(=O)C=C)CC1)C(=O)N(c1cc(OC)cc(OC)c1)C2 [CXF-009]
ZAP70
  inhibition at 1 µM: 11.8%
PAK4
  inhibition at 1 µM: 6.5%
CK1γ1
  inhibition at 1 µM: 4.78%
MER
  inhibition at 1 µM: 3.59%
SRC
  inhibition at 1 µM: 3.48%
IKK-alpha(CHUK)
  inhibition at 1 µM: 2.35%
AMPKα1/β1/γ1
  inhibition at 1 µM: 2.23%
JAK3
  inhibition at 1 µM: 1.94%
CDK2/CycE1
  inhibition at 1 µM: 1.59%
TGFbR1
  inhibition at 1 µM: 1.08%
NPM1-ALK
  inhibition at 1 µM: 0.37%
CDK9/CycK
  inhibition at 1 µM: 0.11%
TAOK1
  inhibition at 1 µM: -0.59%
EPHB4
  inhibition at 1 µM: -1.86%
DDR1
  inhibition at 1 µM: -3.41%
BRSK2
  inhibition at 1 µM: -5.03%
CDK5/p25NCK
  inhibition at 1 µM: -5.5%
PDGFRβ
  inhibition at 1 µM: -6.88%
FES
  inhibition at 1 µM: -7.81%
TGFβR2
  inhibition at 1 µM: -10.4%
DYRK3
  inhibition at 1 µM: -12%
JAK1
  inhibition at 1 µM: -12.3%
